Experimental data published in PubChem BioAssay AID1963984 (Molecular Pharmacology Branch, DTP, NCI, 2024).

System: 233499-124-R-J3-PDC spheroids with HUVEC/MSC, viability
Experiment: Anticancer human tumor 233499-124-R-J3-PDC patient-derived colon adenocarcinoma cell line growth inhibition [PI3K]
Conditions: for IC50: curve of first compound; for viability, T/C: stronger effect = lower value
Summary of the method: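 Tumor cells were combined with HUVEC and MSCs into spheroids, then dosed with PI3K-inhibitor combinations over half-log ranges capped near clinical Cmax or 10 microM.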

[1] = second compound 0.0316 µM, first compound 0.0316 µM
[2] = second compound 0.0316 µM, first compound 0.1 µM
[3] = second compound 0.1 µM, first compound 0.0316 µM
[4] = second compound 0.1 µM, first compound 0.1 µM
[5] = second compound 0.316 µM, first compound 0.0316 µM
[6] = second compound 0.316 µM, first compound 0.1 µM
[7] = second compound 1 µM, first compound 0.0316 µM
[8] = second compound 1 µM, first compound 0.1 µM
[9] = second compound 3.16 µM, first compound 0.0316 µM
[10] = second compound 3.16 µM, first compound 0.1 µM
[11] = second compound 10 µM, first compound 0.0316 µM
[12] = second compound 10 µM, first compound 0.1 µM
[13] = second compound 0.0316 µM, first compound 0.316 µM
[14] = second compound 0.0316 µM, first compound 1 µM
[15] = second compound 0.0316 µM, first compound 3.16 µM
[16] = second compound 0.0316 µM, first compound 10 µM
[17] = second compound 0.1 µM, first compound 0.316 µM
[18] = second compound 0.1 µM, first compound 1 µM
[19] = second compound 0.1 µM, first compound 3.16 µM
[20] = second compound 0.1 µM, first compound 10 µM
[21] = second compound 0.316 µM, first compound 0.316 µM
[22] = second compound 0.316 µM, first compound 1 µM
[23] = second compound 0.316 µM, first compound 3.16 µM
[24] = second compound 0.316 µM, first compound 10 µM
[25] = second compound 1 µM, first compound 0.316 µM
[26] = second compound 1 µM, first compound 1 µM
[27] = second compound 1 µM, first compound 3.16 µM
[28] = second compound 1 µM, first compound 10 µM
[29] = second compound 3.16 µM, first compound 0.316 µM
[30] = second compound 3.16 µM, first compound 1 µM
[31] = second compound 3.16 µM, first compound 3.16 µM
[32] = second compound 3.16 µM, first compound 10 µM
[33] = second compound 10 µM, first compound 0.316 µM
[34] = second compound 10 µM, first compound 1 µM
[35] = second compound 10 µM, first compound 3.16 µM
[36] = second compound 10 µM, first compound 10 µM
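Note: spheroids exposed to agents for seven days before readout.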
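Throughout, for viability, T/C: percent viability relative to DMSO vehicle control taken as 100%.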

CC(=O)c1c(C)c2cnc(Nc3ccc(N4CCNCC4)cn3)nc2n(C2CCCC2)c1=O + Cc1nc(NC(=O)N2CCCC2C(N)=O)sc1-c1ccnc(C(C)(C)C(F)(F)F)c1
IC50 (second compound 0.0316 µM): > 0.1 µM | IC50 (second compound 0.1 µM): > 0.1 µM | IC50 (second compound 0.316 µM): 0.0659 µM | IC50 (second compound 1 µM): 0.0582 µM | IC50 (second compound 3.16 µM): 0.042 µM | IC50 (second compound 10 µM): < 0.000316 µM | viability, T/C (second compound 0.0316 µM, first compound 0.000316 µM): 98.6% | viability, T/C (second compound 0.0316 µM, first compound 0.001 µM): 93.2% | viability, T/C (second compound 0.0316 µM, first compound 0.00316 µM): 65.5% | viability, T/C (second compound 0.0316 µM, first compound 0.01 µM): 79.9% | viability, T/C [1]: 99.6% | viability, T/C [2]: 79.1% | viability, T/C (second compound 0.1 µM, first compound 0.000316 µM): 90.2% | viability, T/C (second compound 0.1 µM, first compound 0.001 µM): 90.2% | viability, T/C (second compound 0.1 µM, first compound 0.00316 µM): 74.7% | viability, T/C (second compound 0.1 µM, first compound 0.01 µM): 98% | viability, T/C [3]: 83% | viability, T/C [4]: 54.5% | viability, T/C (second compound 0.316 µM, first compound 0.000316 µM): 77.7% | viability, T/C (second compound 0.316 µM, first compound 0.001 µM): 89.7% | viability, T/C (second compound 0.316 µM, first compound 0.00316 µM): 86.6% | viability, T/C (second compound 0.316 µM, first compound 0.01 µM): 75% | viability, T/C [5]: 58.5% | viability, T/C [6]: 45.3% | viability, T/C (second compound 1 µM, first compound 0.000316 µM): 79.5% | viability, T/C (second compound 1 µM, first compound 0.001 µM): 67.9% | viability, T/C (second compound 1 µM, first compound 0.00316 µM): 80.6% | viability, T/C (second compound 1 µM, first compound 0.01 µM): 70% | viability, T/C [7]: 74.9% | viability, T/C [8]: 28.3% | viability, T/C (second compound 3.16 µM, first compound 0.000316 µM): 53.3% | viability, T/C (second compound 3.16 µM, first compound 0.001 µM): 57.2% | viability, T/C (second compound 3.16 µM, first compound 0.00316 µM): 76.4% | viability, T/C (second compound 3.16 µM, first compound 0.01 µM): 37.5% | viability, T/C [9]: 61.8% | viability, T/C [10]: 28.2% | viability, T/C (second compound 10 µM, first compound 0.000316 µM): 27.8% | viability, T/C (second compound 10 µM, first compound 0.001 µM): 26.9% | viability, T/C (second compound 10 µM, first compound 0.00316 µM): 27.5% | viability, T/C (second compound 10 µM, first compound 0.01 µM): 34.6% | viability, T/C [11]: 36.9% | viability, T/C [12]: 28%

CCCS(=O)(=O)Nc1ccc(F)c(C(=O)c2c[nH]c3ncc(-c4ccc(Cl)cc4)cc23)c1F + Cc1nc(NC(=O)N2CCCC2C(N)=O)sc1-c1ccnc(C(C)(C)C(F)(F)F)c1
IC50 (second compound 0.0316 µM): 5.29 µM | IC50 (second compound 0.1 µM): 4.82 µM | IC50 (second compound 0.316 µM): 4.83 µM | IC50 (second compound 1 µM): 4.7 µM | IC50 (second compound 3.16 µM): 3.57 µM | IC50 (second compound 10 µM): < 0.0316 µM | viability, T/C [1]: 119% | viability, T/C [2]: 98.2% | viability, T/C [13]: 87.2% | viability, T/C [14]: 110% | viability, T/C [15]: 89% | viability, T/C [16]: 1.84% | viability, T/C [3]: 97% | viability, T/C [4]: 109% | viability, T/C [17]: 84.8% | viability, T/C [18]: 92.5% | viability, T/C [19]: 77.7% | viability, T/C [20]: 4.22% | viability, T/C [5]: 98.9% | viability, T/C [6]: 81.7% | viability, T/C [21]: 84.5% | viability, T/C [22]: 98.1% | viability, T/C [23]: 78.2% | viability, T/C [24]: 1.3% | viability, T/C [7]: 82.8% | viability, T/C [8]: 71.8% | viability, T/C [25]: 86.3% | viability, T/C [26]: 67% | viability, T/C [27]: 75.3% | viability, T/C [28]: 1.86% | viability, T/C [9]: 55.8% | viability, T/C [10]: 59.1% | viability, T/C [29]: 49.1% | viability, T/C [30]: 53.9% | viability, T/C [31]: 59.4% | viability, T/C [32]: 4.28% | viability, T/C [11]: 34.1% | viability, T/C [12]: 35.4% | viability, T/C [33]: 50.9% | viability, T/C [34]: 29.8% | viability, T/C [35]: 22.8% | viability, T/C [36]: 0.89%

CNC(=O)c1ccc(N2C(=S)N(c3ccc(C#N)c(C(F)(F)F)c3)C(=O)C2(C)C)cc1F + Cc1nc(NC(=O)N2CCCC2C(N)=O)sc1-c1ccnc(C(C)(C)C(F)(F)F)c1
IC50 (second compound 0.0316 µM): 9.8 µM | IC50 (second compound 0.1 µM): > 10 µM | IC50 (second compound 0.316 µM): > 10 µM | IC50 (second compound 1 µM): > 10 µM | IC50 (second compound 3.16 µM): 4.62 µM | IC50 (second compound 10 µM): < 0.0316 µM | viability, T/C [1]: 101% | viability, T/C [2]: 107% | viability, T/C [13]: 80.8% | viability, T/C [14]: 100% | viability, T/C [15]: 102% | viability, T/C [16]: 49.1% | viability, T/C [3]: 111% | viability, T/C [4]: 72.8% | viability, T/C [17]: 66% | viability, T/C [18]: 84.1% | viability, T/C [19]: 85.9% | viability, T/C [20]: 73.2% | viability, T/C [5]: 95.8% | viability, T/C [6]: 100% | viability, T/C [21]: 70.6% | viability, T/C [22]: 88.3% | viability, T/C [23]: 85.9% | viability, T/C [24]: 56.2% | viability, T/C [7]: 105% | viability, T/C [8]: 70.3% | viability, T/C [25]: 78.9% | viability, T/C [26]: 61.5% | viability, T/C [27]: 60.5% | viability, T/C [28]: 51.3% | viability, T/C [9]: 59.1% | viability, T/C [10]: 51.1% | viability, T/C [29]: 61.2% | viability, T/C [30]: 54.5% | viability, T/C [31]: 57% | viability, T/C [32]: 37% | viability, T/C [11]: 24% | viability, T/C [12]: 34.6% | viability, T/C [33]: 28.1% | viability, T/C [34]: 31.8% | viability, T/C [35]: 29.3% | viability, T/C [36]: 19.6%
